According to patent US6476019B1, “Spirocyclic ligands for sigma receptors, and libraries and methods of use thereof” (Sepracor Inc., priority 1999, dated 2002):
≈ marks a conversion by molar mass, not a printed value. Where two headings read alike, the source gives them in different places.

Experiments:
sigma-1 receptors = sigma-1 receptors (Cavia porcellus, UniProt Q60492); assay: Behavioral receptor assays: sigma-1; assay type: binding; settings: guinea pig
Method: (§1) Various compounds of the present invention (19, 31, and 32) were evaluated in a group of assays based on mammalian cellular receptors associated with behavior. The group consisted of assays base on human dopamine D1, D2L, D3, D4.2, D4.4, D4.7, and D5 receptors, and the transporter; human serotonin 5-HT1A, 5-HT1B, 5-HT1D, 5-HT2A, 5-HT2B, 5-HT2C, 5-HT3, 5-HT5A, 5-HT6, and 5-HT7 receptors, and the human serotonin transporter; guinea pig 5-HT4 and sigma-1 receptors; rat sigma-2 and muscarinic receptors; and human NK1-3 receptors. The following table presents a subset of the results of these assays.

GSH Level = assay: Safety Assessment: GSH Level
[1] = molecular target: T1, sigma-1 receptor (guinea pig brain) (Cavia porcellus, UniProt Q60492); assay: Antagonism of haloperidol binding to guinea pig sigma-1 receptors; settings: sigma-1, guinea pig brain; for % Inhibition: test concentration not given
T1 construct: from tissue; host or cells: guinea pig brain

CYP1A2 = molecular target: T2, CYP1A2 (Homo sapiens, UniProt P05177); assay: In Vitro Metabolism (isozymes of P450) CYP1A2
T2 sequence (P05177 1-516): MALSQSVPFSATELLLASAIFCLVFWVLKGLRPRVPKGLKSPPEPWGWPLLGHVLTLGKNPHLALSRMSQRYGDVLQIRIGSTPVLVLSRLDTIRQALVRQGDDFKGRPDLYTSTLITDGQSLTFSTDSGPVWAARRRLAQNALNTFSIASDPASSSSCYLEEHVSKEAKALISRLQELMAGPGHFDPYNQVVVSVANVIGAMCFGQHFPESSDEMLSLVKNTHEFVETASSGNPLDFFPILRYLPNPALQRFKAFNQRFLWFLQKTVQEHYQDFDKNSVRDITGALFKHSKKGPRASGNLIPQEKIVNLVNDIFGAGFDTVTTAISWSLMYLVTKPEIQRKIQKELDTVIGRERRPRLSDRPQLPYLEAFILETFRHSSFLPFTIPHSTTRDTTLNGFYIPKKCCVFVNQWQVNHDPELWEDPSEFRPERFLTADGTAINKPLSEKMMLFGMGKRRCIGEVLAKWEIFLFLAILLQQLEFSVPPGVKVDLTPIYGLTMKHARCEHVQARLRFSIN

Caspase-3 = assay: Safety Assessment: Caspase-3 Induction
CYP2D6 = CYP2D6 (Homo sapiens, UniProt P10635); assay: In Vitro Metabolism (isozymes of P450) CYP2D6
Cell Viability = assay: Safety Assessment: Cell Viability
[2] = molecular target: T3, guinea pig sigma receptor (Cavia porcellus, UniProt Q60492); assay: Guinea pig sigma receptor assay; assay type: binding; settings: read-out: IC50 Against Guinea Pig Sigma Receptor
T3 construct: having guinea pig as a receptor source; from tissue; host or cells: guinea pig
Method: (§2) The ability of test compounds to displace sigma ligands in vitro was determined by the methods of de Costa et al. (FEBS Lett. 251:53 (1989)) and De Haven-Hudkine et al. (Eur. J. Pharmacol. 227:372 (1992)) having guinea pig as a receptor source. Whereas, the methods of Gamapatju et al. (J. Pharm.&Exp. 289:251 (1999)) were utilized for human sigma receptors.

human sigma receptor = human sigma receptor (Homo sapiens, UniProt Q99720); assay: Human sigma receptor assay; assay type: binding; settings: read-out: IC50 Against Human Sigma Receptor
Method: as §2

[3] = Pharmacokinetics in a single rat; assay type: in vivo; settings: for concentration at 4 h: brain, 4 h post dose, read-out: Brain Tissue Distribution (4 h post dose, ng/g tissue); for concentration at 4 h / clearance / AUC(0-t): iv; for concentration at 4 h / AUC(0-t) / T1/2α / T1/2β: rat; for clearance / AUC(0-t): plasma; for clearance / Vb / Vc: rat (270 g); for AUC(0-t): read-out: AUC0-4h
Method: Pharmacokinetic properties of the compounds were evaluated in a single rat after dosing 4 and 5 mg/kg, respectively. The dose was well tolerated by the animal. The data below is based on a 270 g rat. Numerous time points were taken during a 4 hour period where a 0.1 mL volume of plasma was transferred to a 1.4 mL polypropylene vial and 0.4 mL of chilled methanol (0° C.) was added. The resulting percipitate was centrifuged at 7000 rpm at 4° C. for 5 min. The resulting supernatant was analysed by HPLC using a sample volume of 0.05 mL alongside standard solutions prepared by “spiking” known amounts of the compounds into the control plasma. Standard solution of the compounds were prepared in methanol.

CYP2C19 = CYP2C19 (Homo sapiens, UniProt P33261); assay: In Vitro Metabolism (isozymes of P450) CYP2C19
CYP2C9 = CYP2C9 (Homo sapiens, UniProt P11712); assay: In Vitro Metabolism (isozymes of P450) CYP2C9
RedOx State = assay: Safety Assessment: RedOx State
Protein Synthesis = assay: Safety Assessment: Protein Synthesis
CYP3A4 = CYP3A4 (Homo sapiens, UniProt P08684); assay: In Vitro Metabolism (isozymes of P450) CYP3A4
Permeability = assay type: in vitro ADME; settings: not told; read-out: Permeability PupperX10^6 cm/s
Membrane Integrity = assay: Safety Assessment: Membrane Integrity
sigma-2 = sigma-2 (Rattus norvegicus, UniProt Q5U3Y7); assay: Behavioral receptor assays: sigma-2; assay type: binding; settings: read-out: Receptors (IC50) sigma-2
Method: as §1

DNA Synthesis = assay: Safety Assessment: DNA Synthesis

T1 sequence (Q60492 whole entry): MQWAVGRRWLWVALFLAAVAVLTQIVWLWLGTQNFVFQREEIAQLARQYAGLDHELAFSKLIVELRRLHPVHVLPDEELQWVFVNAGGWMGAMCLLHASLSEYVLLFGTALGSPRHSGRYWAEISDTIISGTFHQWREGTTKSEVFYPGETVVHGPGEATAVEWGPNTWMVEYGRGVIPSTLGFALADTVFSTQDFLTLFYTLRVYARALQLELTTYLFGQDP
Sequence of CYP2C19 (P33261 whole entry): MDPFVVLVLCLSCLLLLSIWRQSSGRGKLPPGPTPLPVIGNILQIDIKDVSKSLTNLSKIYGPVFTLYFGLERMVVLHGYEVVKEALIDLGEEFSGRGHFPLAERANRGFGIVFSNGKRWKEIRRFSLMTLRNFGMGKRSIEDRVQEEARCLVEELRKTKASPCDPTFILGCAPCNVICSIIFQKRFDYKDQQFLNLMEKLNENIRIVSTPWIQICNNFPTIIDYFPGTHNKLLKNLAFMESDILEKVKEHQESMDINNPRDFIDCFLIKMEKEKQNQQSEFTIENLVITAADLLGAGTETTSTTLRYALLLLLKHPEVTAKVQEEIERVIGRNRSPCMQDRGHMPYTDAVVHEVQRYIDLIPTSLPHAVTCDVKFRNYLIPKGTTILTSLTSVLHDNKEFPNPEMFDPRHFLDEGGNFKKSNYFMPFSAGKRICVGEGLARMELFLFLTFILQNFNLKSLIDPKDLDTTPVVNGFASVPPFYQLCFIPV
Sequence of CYP3A4 (P08684 whole entry): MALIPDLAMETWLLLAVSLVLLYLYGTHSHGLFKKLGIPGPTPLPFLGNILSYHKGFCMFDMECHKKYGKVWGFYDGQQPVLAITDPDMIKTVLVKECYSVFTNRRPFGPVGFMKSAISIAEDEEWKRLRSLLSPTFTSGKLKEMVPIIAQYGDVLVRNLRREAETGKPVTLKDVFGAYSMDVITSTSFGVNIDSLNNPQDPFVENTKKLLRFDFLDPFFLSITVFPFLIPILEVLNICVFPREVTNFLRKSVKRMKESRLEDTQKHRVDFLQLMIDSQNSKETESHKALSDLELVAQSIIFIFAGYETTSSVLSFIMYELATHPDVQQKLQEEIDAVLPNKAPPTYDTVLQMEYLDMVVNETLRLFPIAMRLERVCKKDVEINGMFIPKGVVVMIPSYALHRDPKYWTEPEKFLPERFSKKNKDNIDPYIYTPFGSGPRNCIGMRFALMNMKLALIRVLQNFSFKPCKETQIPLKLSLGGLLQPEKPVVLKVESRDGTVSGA
Sequence of CYP2D6 (P10635 whole entry): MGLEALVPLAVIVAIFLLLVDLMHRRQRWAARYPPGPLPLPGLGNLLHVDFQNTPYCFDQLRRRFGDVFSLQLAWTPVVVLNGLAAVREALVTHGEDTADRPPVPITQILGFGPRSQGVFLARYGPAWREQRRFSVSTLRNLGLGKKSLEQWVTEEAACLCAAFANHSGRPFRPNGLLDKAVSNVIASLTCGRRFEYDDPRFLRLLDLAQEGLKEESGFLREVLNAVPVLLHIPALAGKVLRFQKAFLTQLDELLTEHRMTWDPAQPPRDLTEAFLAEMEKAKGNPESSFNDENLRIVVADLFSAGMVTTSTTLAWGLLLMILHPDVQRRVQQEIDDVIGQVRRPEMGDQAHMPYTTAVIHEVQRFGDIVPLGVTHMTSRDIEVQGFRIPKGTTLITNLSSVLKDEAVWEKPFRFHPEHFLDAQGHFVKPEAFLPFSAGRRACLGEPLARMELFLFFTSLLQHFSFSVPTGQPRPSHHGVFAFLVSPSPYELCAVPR
Sequence of human sigma receptor (Q99720 whole entry): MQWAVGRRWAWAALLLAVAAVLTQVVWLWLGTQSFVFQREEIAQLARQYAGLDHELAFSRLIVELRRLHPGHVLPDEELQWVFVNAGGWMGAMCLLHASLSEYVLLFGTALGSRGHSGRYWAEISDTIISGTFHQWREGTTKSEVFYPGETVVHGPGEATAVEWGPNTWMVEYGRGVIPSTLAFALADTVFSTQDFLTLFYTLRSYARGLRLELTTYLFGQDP
Sequence of CYP2C9 (P11712 whole entry): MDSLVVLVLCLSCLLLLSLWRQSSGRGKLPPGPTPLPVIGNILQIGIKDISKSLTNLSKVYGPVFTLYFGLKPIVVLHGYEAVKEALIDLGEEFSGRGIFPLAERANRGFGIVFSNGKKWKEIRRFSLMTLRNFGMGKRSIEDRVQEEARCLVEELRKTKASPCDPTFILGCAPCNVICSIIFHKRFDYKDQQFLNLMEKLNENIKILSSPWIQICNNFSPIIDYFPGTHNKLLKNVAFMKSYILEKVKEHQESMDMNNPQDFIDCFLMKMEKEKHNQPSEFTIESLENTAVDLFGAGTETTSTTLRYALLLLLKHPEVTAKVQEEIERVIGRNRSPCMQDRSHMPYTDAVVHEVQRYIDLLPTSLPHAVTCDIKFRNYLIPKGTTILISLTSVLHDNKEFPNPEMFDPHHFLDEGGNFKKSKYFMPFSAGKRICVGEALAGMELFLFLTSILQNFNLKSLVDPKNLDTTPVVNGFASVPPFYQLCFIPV
Sequence of sigma-1 receptors (Q60492 whole entry): as the sequence (Q60492 whole entry) above
T3 sequence (Q60492 whole entry): as above
Sequence of sigma-2 (Q5U3Y7 whole entry): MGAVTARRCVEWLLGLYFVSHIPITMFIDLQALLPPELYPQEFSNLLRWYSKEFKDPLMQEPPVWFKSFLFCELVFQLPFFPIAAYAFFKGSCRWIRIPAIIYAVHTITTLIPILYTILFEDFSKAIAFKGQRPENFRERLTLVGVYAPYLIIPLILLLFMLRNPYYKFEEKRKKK

Metabolic Stability (% parent remaining) (Metabolic Stability) | IC50 (sigma-1 receptors) [nM] | Log D7.5 (Log D7.5) | IC50 [1] [nM] | % Inhibition [1] [%] | CYP1A2 (CYP1A2) [% inhibition] | CYP2D6 (CYP2D6) [% inhibition] | IC50 [2] [nM] | IC50 (human sigma receptor) [nM] | CYP2C19 (CYP2C19) [% inhibition] | solubility (Solubility) [µM] | CYP2C9 (CYP2C9) [% inhibition] | CYP3A4 (CYP3A4) [% inhibition] | fraction unbound (Protein Binding) | Papp (Permeability) [×10⁻⁶ cm/s] | Compound | GSH Level (% Control) (GSH Level) | Caspase-3 Induction % Induction (Caspase-3) [% Induction] | Cell Viability (Cell Viability) [% inhibition] | RedOx State (RedOx State) [% inhibition] | Protein Synthesis (Protein Synthesis) [% inhibition] | other results
44 | < 10 | 2.19 | < 10 | >50 | <10 | 44 | < 10 | < 100 | 28 | 192 (≈ 65 µg/mL) | <10 | 22 | 0.04 | 22.9 | O=C1CCC2(CCN(Cc3ccc(F)cc3)CC2)Nc2ccccc21 [Compound 31, 1′-(4-fluorobenzyl)-3,4-dihydrospiro[5H-1-benzazepine-2(1H)-4′-piperidin]-5-one] | <10 | <10 | <10 | 28 | 65 | concentration at 4 h ([3]; 4 mg/kg i.v.): 70 ng/g; clearance ([3]; 4 mg/kg i.v.): 10.2 mL/min; AUC(0-t) ([3]; 4 mg/kg i.v., Peg400:Dextrose (2:3 v/v)): 1480 ng·h/mL; Vb ([3]; 4 mg/kg i.v.): 0.65 L; Vc ([3]; 4 mg/kg i.v.): 0.23 L; T1/2α ([3]; 4 mg/kg i.v.): 7.2 min; T1/2β ([3]; 4 mg/kg i.v.): 48 min; Membrane Integrity (Membrane Integrity): <10 % inhibition; IC50 (sigma-2): < 1000 nM; DNA Synthesis (DNA Synthesis): <10 % inhibition
1 | < 10 | 3.7 | < 10 | >50 | 20 | 102 | < 10 | < 100 | 42 | 83 (≈ 28.3 µg/mL) | 11 | 67 | < 0.01 | 22.4 | OC1CCC2(CCN(Cc3ccc(F)cc3)CC2)Nc2ccccc21 (racemic) [Compound 32, 1′-(4-fluorobenzyl)-3,4-dihydrospiro[5H-1-benzazepine-2(1H)-4′-piperidin]-5ol] | <10 | <10 | <10 | 17 | <10 | concentration at 4 h ([3]; 5 mg/kg i.v.): 134 ng/g; clearance ([3]; 5 mg/kg i.v.): 31.7 mL/min; AUC(0-t) ([3]; 5 mg/kg i.v., 10% hydroxypropyl-p-cyclodextrin): 700 ng·h/mL; Vb ([3]; 5 mg/kg i.v.): 42 L; Vc ([3]; 5 mg/kg i.v.): 1.1 L; T1/2α ([3]; 5 mg/kg i.v.): 12.6 min; T1/2β ([3]; 5 mg/kg i.v.): 120 min; Membrane Integrity (Membrane Integrity): <10 % inhibition; IC50 (sigma-2): < 1000 nM; DNA Synthesis (DNA Synthesis): <10 % inhibition
